Test results published in patent US8871786B2, “Azaindazole amide compounds as CCR1 receptor antagonists” (Boehringer Ingelheim International GmbH, priority 2010, dated 2014).

Each compound was assayed against T1, CCR1 (Homo sapiens, UniProt P32246) (assay: Calcium flux assay in CCR1 transfected cells (block of CCR1/MIP-1α interaction)). Conditions: cells stably expressing recombinant CCR1 and G-alpha-16; MIP-1 alpha at EC80; mean.
T1 sequence (P32246 1-355): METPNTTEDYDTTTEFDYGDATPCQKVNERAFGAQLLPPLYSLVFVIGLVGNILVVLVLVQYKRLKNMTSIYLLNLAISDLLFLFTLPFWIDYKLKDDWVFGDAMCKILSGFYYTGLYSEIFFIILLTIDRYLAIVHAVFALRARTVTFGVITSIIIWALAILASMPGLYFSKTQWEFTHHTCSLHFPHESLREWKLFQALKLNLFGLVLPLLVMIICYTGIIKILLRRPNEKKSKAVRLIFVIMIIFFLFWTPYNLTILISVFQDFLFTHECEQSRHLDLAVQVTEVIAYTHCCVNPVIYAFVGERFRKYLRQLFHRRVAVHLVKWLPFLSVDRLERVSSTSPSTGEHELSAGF
Assay type: cell-based
Protocol: Compounds are assessed for the ability to block the interaction of CCR1 and MIP-1α in a functional cellular assay measuring calcium flux in CCR1 transfected cells.
Non-adherent cells purchased from Chemicon Corporation (HTS005C), stably expressing recombinant CCR1 and G-alpha-16 are grown in RPMI 1640 medium (Mediatech 10-080-CM) supplemented with 10% FBS, 0.4 mg/mL Geneticin and penicillin/streptomycin. On the day of the assay, the cells are loaded with Calcium 4 dye (Molecular Devices R7448) with Probenecid (Invitrogen P346400) at 8E5 cells/mL for 1 hour at room temperature. After 1 hour, they are seeded in a 384-well tissue culture-treated plate at a density of 20,000 cells/well. Appropriately diluted test compound is added to the well to achieve a top concentration of 3,000 nM (diluted 4-fold with 10 doses total). The final concentration of DMSO is 1%. The buffer is HBSS (Invitrogen 14025) with 20 mM HEPES at pH 7.4. The cells incubate 30 minutes at 37 C and then 30 minutes at room temperature. The plates are transferred to the HAMAMATSU FDSS6000 where MIP-1 alpha in 1% BSA is added at the EC80 final concentration. All plates must be read within 4 hours of the start of dye-loading. Wells+/−MIP-1 alpha containing diluted DMSO instead of compound serve as the controls. Data are analyzed using Activity Base software.

| SMILES | IC50 [nM] |
| --- | --- |
| COC(=O)c1ccc(NC(=O)c2cncc3c2cnn3-c2ccc(F)cc2)c(C)c1 | 24 |
| Cc1cc(-c2nnco2)ccc1NC(=O)c1cncc2c1cnn2-c1ccc(F)cc1 | 30 |
| Cc1noc(C)c1NC(=O)c1cncc2c1cnn2-c1ccc(F)cc1 | 6.9 |
| Cc1ccnc(C)c1NC(=O)c1cncc2c1cnn2-c1ccc(F)cc1 | 21 |
| CNC(=O)c1ccc(NC(=O)c2cncc3c2cnn3-c2ccc(F)cc2)c(C)c1 | 93 |
| Cc1cc(C)c(S(C)(=O)=O)cc1NC(=O)c1cncc2c1cnn2-c1ccc(F)cc1 | 2.1 |
| Cn1ncc(-c2ccccc2)c1NC(=O)c1cncc2c1cnn2-c1ccc(F)cc1 | 84 |
| Cc1cccc(Cl)c1NC(=O)c1cncc2c1cnn2-c1ccc(F)cc1 | 36 |
| Cc1cc(Cl)cc(C)c1NC(=O)c1cncc2c1cnn2-c1ccc(F)cc1 | 2.8 |
| Cc1cc(C)c(NC(=O)c2cncc3c2cnn3-c2ccc(F)cc2)c(C)c1 | 19 |
| Cn1nccc1-c1cccc(NC(=O)c2cncc3c2cnn3-c2ccc(F)cc2)c1 | 73 |
| Cc1nc(Cl)ccc1NC(=O)c1cncc2c1cnn2-c1ccc(F)cc1 | 8.8 |
| Cc1cc(C(=O)N(C)C)ccc1NC(=O)c1cncc2c1cnn2-c1ccc(F)cc1 | 66 |
| Cc1onc(-c2ccccc2)c1NC(=O)c1cncc2c1cnn2-c1ccc(F)cc1 | 14 |
| Cc1ccc(NC(=O)c2cncc3c2cnn3-c2ccc(F)cc2)c(Cl)n1 | 82 |
